According to patent US9949971B2, “Therapeutic combinations of a BTK inhibitor, a PI3K inhibitor and/or a JAK-2 inhibitor” (Acerta Pharma B.V., priority 2014, dated 2018):

Legend:
[1] = tested on: signals through the B cell receptor (CD69 on gated CD19+ B cells); assay: Whole blood inhibition of B cell receptor signals (anti-IgD induced CD69 on CD19+ B cells, flow cytometry); type: cell-based; settings: whole blood of four healthy donors, 2 h incubation, anti-human IgD 10 μg/mL 18 h
Experimental: Blood from four healthy donors was incubated for 2 hours with the compounds shown over a concentration range, and then stimulated with anti-human IgD [10 μg/mL] for 18 hours. The mean fluorescent intensity (MFI) of CD69 (and CD86, data not shown) on gated CD19+ B cells was measured by flow cytometry.

NK cells [2] = assay: rituximab ADCC mediated by NK cells; type: cell-based
Excerpt: H. E. Kohrt, et al., Blood 2014, 123, 1957-60.

GPVI = GPVI platelet aggregation (Convulxin-induced); type: cell-based, human; settings: for inhibition of GPVI platelet aggregation: human platelets, CVX-induced
Experimental: GPVI platelet aggregation was measured for Formula (XVIII) and Formula XX-A (ibrutinib). Blood was obtained from untreated humans, and platelets were purified from […] by centrifugation. Cells were resuspended to a final concentration of 350,000/μL in buffer containing 145 mmol/L NaCl, 10 mmol/L HEPES, 0.5 mmol/L Na2HPO4, 5 mmol/L KCl, 2 mmol/L MgCl2, 1 mmol/L CaCl2, and 0.1% glucose, at pH 7.4. Stock solutions of […] were prepared on the day of experimentation and added to platelet suspensions 5 minutes (37° C., 1200 rpm) before the induction of aggregation. Aggregation was assessed with a Chronolog Lumi-Aggregometer (model 540 VS; Chronolog, Havertown, Pa.) and permitted to proceed for 6 minutes after the addition of agonist. The results are reported as maximum percent change in light transmittance from baseline with platelet buffer used as a reference.
In FIG. 97, the results of CVX-induced (250 ng/mL) human platelet aggregation results before and 15 minutes after administration of the BTK inhibitors to 6 healthy individuals are shown.

[3] = study of respiratory function (GLP safety pharmacology); settings: rats, doses through 300 mg/kg (the highest dose level)
[4] = functional observation battery (GLP safety pharmacology); settings: rats, doses through 300 mg/kg (the highest dose level)
BCR = assay: in vivo potency: BCR activation markers CD69 and CD86 after IgM stimulation; parameters: species or system mouse; settings: mice gavaged, 3 hours post-dose, BCR stimulated with IgM, flow cytometry
Experimental: Mice were gavaged at increasing drug concentration and sacrificed at one time point (3 hours post-dose). BCR is stimulated with IgM and the expression of activation markers CD69 and CD86 are monitored by flow cytometry to determine EC50values.
CD86 and CD69 are cell surface proteins that are BCR activation markers. […] BCR was stimulated with IgM and the expression of activation marker CD69 and CD86 are monitored by flow cytometry and to determine EC50 values.

[5] = Glutathione binding and depletion in vitro; type: in vitro ADME
NK cells [6] = assay: NK cell degranulation/ADCC whole blood assay with obinutuzumab; type: cell-based, human; settings: whole blood pretreated 1 hour, MEC-1 cells opsonised with obinutuzumab 1 μg/mL, 4 hours, n=3
Experimental: Degranulation in whole blood was performed as follows. […] Exponentially growing cells were used. On the day of the experiment, 8 mL of blood was drawn from a normal volunteer into a test tube containing desirudin to obtain a final concentration of 50 μg/mL. A white blood cell (WBC) count of whole blood was performed. […] 170 μL aliquots of unmanipulated whole blood were incubated with 10 μL BTK inhibitors or X-VIVO 15 medium for one hour into a plate. […] The samples were placed in a 5% CO2 incubator for 4 hours at 37° C.
After 4 hours, the samples were mixed gently and 50 μL aliquots were removed from each well and placed in fluorescence-activated cell sorting (FACS) test tubes. A 20 μL aliquot of anti-CD56-APC antibody and anti-CD107a-PE antibody was added. The samples were incubated for 20 minutes at room temperature in the dark. An aliquot of 2 mL of FACS lysing solution (BD Biosceinces) was added. The samples were again incubated for 5 minutes, and then centrifuged at 2000 rpm for 5 minutes. Supernatant was discarded and the cell pellet was resuspended in 500 μL of PBS. The samples were analyzed on the flow cytometer for CD107a^+ NK cells (CD56^+).

EGFR = EGFR (Homo sapiens, UniProt P00533); assay: in vitro EGFR phosphorylation in A431 cells; settings: 10 μM, A431 human epidermoid cancer cell line
Chain of EGFR (P00533 25-1210): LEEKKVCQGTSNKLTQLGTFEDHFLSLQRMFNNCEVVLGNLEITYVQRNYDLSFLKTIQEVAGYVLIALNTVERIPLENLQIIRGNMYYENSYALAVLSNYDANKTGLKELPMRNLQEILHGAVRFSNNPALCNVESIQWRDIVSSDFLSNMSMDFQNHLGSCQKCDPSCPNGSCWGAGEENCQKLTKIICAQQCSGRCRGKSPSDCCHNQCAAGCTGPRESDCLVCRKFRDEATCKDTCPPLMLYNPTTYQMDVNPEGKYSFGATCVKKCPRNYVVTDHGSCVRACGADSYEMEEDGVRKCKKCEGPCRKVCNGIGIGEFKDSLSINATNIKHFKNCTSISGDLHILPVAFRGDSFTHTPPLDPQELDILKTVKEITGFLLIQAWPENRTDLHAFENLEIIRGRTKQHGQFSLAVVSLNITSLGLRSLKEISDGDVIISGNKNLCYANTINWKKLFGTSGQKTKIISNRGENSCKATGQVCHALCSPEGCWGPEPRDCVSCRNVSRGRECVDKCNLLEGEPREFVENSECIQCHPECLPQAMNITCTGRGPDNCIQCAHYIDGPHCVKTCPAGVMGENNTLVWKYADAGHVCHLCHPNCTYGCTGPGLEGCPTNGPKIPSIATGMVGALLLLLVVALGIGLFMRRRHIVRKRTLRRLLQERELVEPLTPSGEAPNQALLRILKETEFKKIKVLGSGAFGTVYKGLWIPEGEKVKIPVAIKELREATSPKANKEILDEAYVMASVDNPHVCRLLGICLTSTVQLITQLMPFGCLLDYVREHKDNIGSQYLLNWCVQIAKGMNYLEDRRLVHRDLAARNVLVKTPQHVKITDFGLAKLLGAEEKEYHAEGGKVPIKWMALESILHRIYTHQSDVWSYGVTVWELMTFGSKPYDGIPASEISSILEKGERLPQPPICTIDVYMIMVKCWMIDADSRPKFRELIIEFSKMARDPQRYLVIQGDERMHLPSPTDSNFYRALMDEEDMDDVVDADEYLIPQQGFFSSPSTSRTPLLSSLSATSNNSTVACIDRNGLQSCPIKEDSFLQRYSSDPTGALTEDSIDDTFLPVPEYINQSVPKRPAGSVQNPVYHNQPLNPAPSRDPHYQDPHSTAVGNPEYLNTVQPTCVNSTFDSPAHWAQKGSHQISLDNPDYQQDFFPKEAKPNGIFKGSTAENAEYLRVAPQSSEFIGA

[7] = tested on: NK cells and monocytic MDSC subsets; assay: Flow cytometry of peripheral blood cell subsets in CLL patients, predose vs 28 days; type: in vivo, human; settings: patients with falling ALC counts; after 28 days of dosing
Experimental: PBMCs were stained with monoclonal antibodies conjugated to fluorescent tags (flourochromes) to identify cell subsets via flow cytometry. Non-viable cells were excluded from the analysis using the dye 7-aminoactinomycin D (7-AAD). To produce the metric of percent change, the following steps were taken. First, each cell subset was defined by hierarchical flow cytometry gating. Then, the change in frequency (between day 1 and day 28) was calculated for each cell subset. MDSC subsets were measured as a % of all myeloid cells. T cell subsets were measured as a % of all CD3^+ cells, and NK cells were measured as a % of all live CD45^+ cells. […] A cycle is 28 days. A trend is observed wherein patients with decreasing ALC % had increasing MDSC (monocytic) %. This may include patients who had quickly resolving lymphocytosis and those with no initial lymphocytosis. […] This may include patients who had quickly resolving lymphocytosis and those having no initial lymphocytosis. The effects in FIG. 107 to FIG. 110 are observed in multiple cohorts, at doses including 100 mg BID, 200 mg QD, and 400 mg QD. In FIG. 111 and FIG. 112, the effects on NK cells and MDSC cells are compared to a number of other markers versus % change in ALC at C1D28 and C2D28. These other markers include CD4+ T cells, CD8+ T cells, CD4+/CD8+ T cell ratio, NK-T cells, PD-1+ CD4+ T cells, and PD-1+ CD8+ T cells. […]

CYP3A4 = CYP3A4 (Homo sapiens, UniProt P08684); assay: In vitro loss of parent drug as catalyzed by CYPs; nonclinical CYP interaction studies; type: in vitro ADME
Chain of CYP3A4 (P08684 whole entry): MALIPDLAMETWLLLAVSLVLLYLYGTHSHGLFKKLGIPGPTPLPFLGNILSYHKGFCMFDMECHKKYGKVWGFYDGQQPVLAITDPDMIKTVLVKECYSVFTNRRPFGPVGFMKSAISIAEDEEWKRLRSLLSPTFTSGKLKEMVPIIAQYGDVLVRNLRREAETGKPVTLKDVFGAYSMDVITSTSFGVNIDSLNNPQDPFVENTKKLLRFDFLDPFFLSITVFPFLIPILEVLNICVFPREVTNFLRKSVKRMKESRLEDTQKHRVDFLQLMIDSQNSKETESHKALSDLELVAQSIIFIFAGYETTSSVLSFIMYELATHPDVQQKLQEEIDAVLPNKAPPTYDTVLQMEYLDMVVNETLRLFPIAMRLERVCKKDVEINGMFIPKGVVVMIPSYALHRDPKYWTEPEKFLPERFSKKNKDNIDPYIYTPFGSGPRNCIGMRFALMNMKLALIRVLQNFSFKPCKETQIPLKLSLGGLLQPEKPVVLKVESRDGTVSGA

B cell lymphoma = assay: veterinary clinical trial in canine lymphoma; type: in vivo, dog; settings: companion dogs with B cell lymphoma
[8] = tested on: mouse, rat, dog, rabbit, monkey, and human hepatocytes; assay: In vitro metabolism studies in hepatocytes with 14C-labeled compound; type: in vitro ADME
BTK = target: T1, BTK (Mus musculus, UniProt P35991); assay: Molecular probe assay of irreversible BTK occupancy in MDSCs from tumor bearing PDA mice; type: in vivo; settings: 15 mg/kg BID, Day 8, 4 hours post dose (N=5)
T1 construct: MDSCs were purified from tumor bearing PDA mice; endogenous in cells; host or cells: granulocytic and monocytic MDSCs from tumor bearing PDA mice
T1 sequence (P35991 whole entry): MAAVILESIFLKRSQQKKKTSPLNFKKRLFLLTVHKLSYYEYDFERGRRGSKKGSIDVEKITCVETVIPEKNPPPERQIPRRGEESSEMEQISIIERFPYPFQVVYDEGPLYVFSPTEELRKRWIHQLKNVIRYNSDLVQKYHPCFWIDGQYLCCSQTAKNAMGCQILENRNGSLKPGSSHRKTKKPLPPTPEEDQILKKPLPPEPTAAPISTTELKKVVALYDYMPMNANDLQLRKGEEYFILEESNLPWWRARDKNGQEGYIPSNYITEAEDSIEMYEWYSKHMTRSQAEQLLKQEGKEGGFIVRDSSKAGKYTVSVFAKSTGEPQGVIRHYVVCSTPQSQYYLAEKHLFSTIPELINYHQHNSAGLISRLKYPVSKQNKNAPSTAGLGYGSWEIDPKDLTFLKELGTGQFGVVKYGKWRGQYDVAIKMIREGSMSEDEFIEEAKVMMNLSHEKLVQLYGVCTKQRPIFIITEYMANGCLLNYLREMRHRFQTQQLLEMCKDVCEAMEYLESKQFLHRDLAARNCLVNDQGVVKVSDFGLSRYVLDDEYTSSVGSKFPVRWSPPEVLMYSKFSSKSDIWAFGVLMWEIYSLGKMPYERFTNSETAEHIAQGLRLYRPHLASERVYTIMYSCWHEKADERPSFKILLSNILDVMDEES
Excerpt: A molecular probe assay was used to calculate the percent irreversible occupancy of total BTK.

[9] = tested on: human platelet-mediated thrombosis; assay: in vivo human thrombus formation in the VWF HA1 mice model (laser injury); settings: human platelets preincubated with BTK inhibitor, laser-induced injury
Experimental: Purified human platelets were preincubated with various concentrations of the BTK inhibitors (0.1 μM, 0.5 μM, or 1 μM) or DMSO and then administered to VWF HA1 mice, followed by laser-induced thrombus formation.
The objective of this study was to evaluate in vivo thrombus formation in the presence of BTK inhibitors.

[10] = in vivo; cited from earlier work
previously treated CLL = settings: Phase 1, monotherapy; cited from earlier work

## C=CC(=O)Nc1cccc(Nc2nc(Nc3ccc(OCCOC)cc3)ncc2F)c1 [CC-292]
[1]
  EC50: 121 nM

## CC#CC(=O)N1CCC[C@H]1c1nc(-c2ccc(C(=O)Nc3ccccn3)cc2)c2c(N)nccn12 [Formula (XVIII), (S)-4-(8-amino-3-(1-(but-2-ynoyl)pyrrolidin-2-yl)imidazo[1,5-a]pyrazin-1-yl)-N-(pyridin-2-yl)benzamide]
NK cells [2]
  antagonism of rituximab ADCC effects mediated by NK cells: does not antagonize rituximab ADCC effects
GPVI; Platelet, purified human platelets, Convulxin (CVX)
  IC50: 1150 nM
GPVI
  inhibition of GPVI platelet aggregation: does not
[3]
  respiratory function: no treatment-related adverse effects
[4]
  neurobehavioral effects or body temperature: no adverse effects
BCR
  in vivo potency at inhibiting expression of activation markers CD69 and CD86, versus ibrutinib: more potent
[5]
  Glutathione binding / depletion: binds to glutathione but does not deplete glutathione
NK cells [6]
  effect on percentage of CD56+/CD107a+ NK cells (obinutuzumab-stimulated NK cell degranulation): minimal effect
EGFR
  inhibition of in vitro EGFR phosphorylation: no inhibition
[7]
  NK cells and monocytic MDSC subsets in peripheral blood: increase in frequency
CYP3A4; in vitro
  Metabolism by CYPs (loss of parent drug): metabolized by CYP3A4
CYP3A4; nonclinical CYP interaction studies
  Potential for clinical drug-drug interactions through CYP substrates: very unlikely to cause clinical drug-drug interactions
B cell lymphoma
  complete responses (CR): not observed
[8]; 14C-labeled compound, mouse, rat, dog, rabbit, monkey, human hepatocytes
  Metabolites formed in hepatocytes: two mono-oxidized metabolites and a glutathione conjugate
[8]; hepatocytes
  Unique human metabolite: No unique human metabolite was identified
BTK
  Irreversible occupancy of total BTK in granulocytic and monocytic MDSCs: Complete BTK occupancy

## C=CC(=O)Nc1cccc(Nc2nc(Nc3ccc(OCCOC)cc3)ncc2F)c1 [Formula (XXVII), N-(3-((5-fluoro-2-((4-(2-methoxyethoxy)phenyl)amino)pyrimidin-4-yl)amino)phenyl)acrylamide]
[9]
  effect on human platelet-mediated thrombus formation: effect similar to Formula XX-A (ibrutinib)

## C=CC(=O)N1CCC[C@@H](n2nc(-c3ccc(Oc4ccccc4)cc3)c3c(N)ncnc32)C1 [ibrutinib, 1-[(3R)-3-[4-amino-3-(4-phenoxyphenyl)-1H-pyrazolo[3,4-d]pyrimidin-1-yl]piperidin-1-yl]prop-2-en-1-one]
NK cells [2]
  antagonism of rituximab ADCC effects mediated by NK cells: undesirably antagonizes rituximab ADCC effects
GPVI
  inhibition of GPVI platelet aggregation: significantly inhibits GPVI platelet aggregation

## obinutuzumab: type II glycoengineered CD20 monoclonal antibody
[10]
  Grade 3 IRRs: 15%
  Grade 3 reactions among hypotension cases: 25%
  Grade 4 IRRs: no Grade 4
  IRR cases developing symptoms of hypotension: 60%
  Patients developing IRR: 95%
  Patients experiencing IRRs: all patients
  Patients experiencing all grade AE: 100%
Previously treated CLL
  MRD-negative complete response, number: 1
  Response rate: 62%
